Data set [1] concerns 3D7 strain of Plasmodium falciparum. Nature of the data set: In vitro antimalarial activity, 48-h [3H]-hypoxanthine incorporation assay. It counts as cell-based. On the procedure: The 3D7 strain of Plasmodium falciparum was used in this study. This strain is known to be […] Parasites were maintained in continuous culture using the method of Jensen and Trager^4. […] Stock drug solutions were prepared in 100% dimethylsulphoxide (DMSO) and diluted to the appropriate concentration using complete medium. Assays were performed in sterile 96-well microlitre plates, each plate contained 200 μl of parasite culture (2% parasitemia, 0.5% haematocrit) with or without 10 μl drug dilutions. Each drug was tested in triplicate and parasite growth compared to control wells (which constituted 100% parasite growth). […] IC50 values were calculated by interpolation of the probit transformation of the log dose-response curve.

Data set [2] relates to Salmonella typhimurium NM2009. The experiment in a line: Salmonella typhimurium SOS/umu genotoxicity assay. From the text:
(§1) This assay is based on the ability of DNA damaging agents to induce the expression of the umu operon. The Salmonella strains have a plasmid pSK1002 which carries an umuC-lacZ fused gene that produces a hybrid protein with β-galactosidase activity and whose expression is controlled by the umu regulatory region.

Data set [3] relates to Salmonella typhimurium TA1535/pSK1002. Nature of the data set: Salmonella typhimurium SOS/umu genotoxicity assay.
Source text: as §1

Where [4] appears, read: 3D7, 3D7 strain, mean of triplicate results, Table 5, read-out: Mean IC50.
[5] abbreviates: 3D7, sulfonamide dispiro 1,2,4,5-tetraoxanes, Table 8, read-out: Mean IC50.

Like-named read-outs stand apart in the source and are kept apart here.

For orientation: melting point means the temperature of the solid-liquid transition. For `COC(=O)[C@@H](NC(=O)CC1CCC2(CC1)OOC1(OO2)C2CC3CC(C2)CC1C3)C(C)C` (stereo in doubt) [Tetraoxane 29j, Adamantyl acetamide], the melting point was in the range of 108 to 110 °C.

The IC50 is the concentration at which inhibition is half-maximal. Regarding `C[C@@H]1CC[C@H]2[C@@H](C)C(=O)O[C@@H]3O[C@@]4(C)CC[C@@H]1[C@]32OO4` [Artemisinin, reference compound], the IC50 is 9.5 nM in data set [1] (setting [4]) and 9.2 nM in data set [1] (setting [5]).

For `O=C1CCC2(CC1)OOC1(CCCCC1)OO2` [Tetraoxane 10, 7,8,15,16-Tetraoxa-dispiro[5.2.5.2]hexadecan-3-one], the melting point was in the range of 78 to 80 °C. Besides, in data set [1] (setting [4]), the IC50 turned out to be 6 nM.

`O=C1CCC2(CC1)OOC1(CCCCCCCCCCC1)OO2` [Tetraoxane 11, 7,8,21,22-Tetraoxa-dispiro[5.2.11.2]docosan-3-one] yielded a melting point of 108 to 110 °C.

`O=C1CCC2(CC1)OOC1(OO2)C2CC3CC(C2)CC1C3` [Tetraoxane 12, adamantane tetraoxane ketone] showed a melting point of 156 to 158 °C.

`C1CCC2(CC1)OOC1(CCC(NC3CC3)CC1)OO2` [Tetraoxane 14, Cyclopropyl-(7,8,15,16-tetraoxa-dispiro[5.2.5.2]hexadec-3-yl)-amine]: the IC50 in data set [1] (setting [4]) is 20 nM.

For the compound `C1CCC2(CC1)OOC1(CCC(N3CCOCC3)CC1)OO2` [Tetraoxane 19, 4-(7,8,15,16-Tetraoxa-dispiro[5.2.5.2]hexadec-3-yl)-morpholine], the IC50 in data set [1] (setting [4]) is 29.4 nM.

As for `CCOC(=O)CC1CCC2(CC1)OOC1(CCCCC1)OO2` [Tetraoxane 27a, (7,8,15,16-Tetraoxa-dispiro[5.2.5.2]hexadec-3-yl)acetic acid ethyl ester], in data set [1] (setting [4]), the IC50 amounted to 24.2 nM.

In the case of `O=C(CC1CCC2(CC1)OOC1(CCCCC1)OO2)NCCN1CCCC1` [Tetraoxane 27d, N-(2-Pyrrolidin-1-yl-ethyl)-2-(7,8,15,16-tetraoxa-dispiro[5.2.5.2]-hexadec-3-yl)-acetamide], the melting point was 110 to 112 °C. The IC50 in data set [1] (setting [4]) is 19.1 nM.

In the case of `O=C(CC1CCC2(CC1)OOC1(CCCCC1)OO2)NCCN1CCCCC1` [Tetraoxane 27e, N-(2-Piperidin-1-yl-ethyl)-2-(7,8,15,16-tetraoxa-dispiro[5.2.5.2]-hexadec-3-yl)-acetamide], the melting point is 68 to 78 °C. Also, the IC50 in data set [1] (setting [4]) turned out to be 19.2 nM.

`O=C(CC1CCC2(CC1)OOC1(CCCCC1)OO2)NCCN1CCOCC1` [Tetraoxane 27f, N-(2-Morpholin-4-yl-ethyl)-2-(7,8,15,16-tetraoxa-dispiro[5.2.5.2]-hexadec-3-yl)-acetamide]: the IC50 in data set [1] (setting [4]) came to 19.1 nM.

Regarding `CCN(CC)CCNC(=O)CC1CCC2(CC1)OOC1(CCCCC1)OO2` [Tetraoxane 27g, N-(2-Diethylamino-ethyl)-2-(7,8,15,16-tetraoxa-dispiro[5.2.5.2]-hexadec-3-yl)-acetamide], the IC50 in data set [1] (setting [4]) was found to be 5.15 nM.

`O=C(CC1CCC2(CC1)OOC1(CCCCCCCCCCC1)OO2)NC1CC1` [Tetraoxane 28c, N-Cyclopropyl-2-(7,8,21,22-tetraoxa-dispiro[5.2.11.2]docos-3-yl)-acet-amide]: the melting point lay within 136 to 138 °C. Also, the half-maximal inhibitory concentration (IC50) in data set [1] (setting [4]) came to 18.7 nM.

As to `O=C(CC1CCC2(CC1)OOC1(CCCCCCCCCCC1)OO2)NCCN1CCCC1` [Tetraoxane 28d, N-(2-Pyrrolidin-1-yl-ethyl)-2-(7,8,21,22-tetraoxa-dispiro[5.2.11.2]do-cos-3-yl)-acetamide], the melting point was in the range of 108 to 110 °C.

Compound `O=C(CC1CCC2(CC1)OOC1(CCCCCCCCCCC1)OO2)NCCN1CCCCC1` [Tetraoxane 28e, N-(2-Piperidin-1-yl-ethyl)-2-(7,8,21,22-tetraoxadispiro[5.2.11.2]-docos-3-yl)-acetamide] yielded a melting point of 96 to 98 °C.

The compound `O=C(CC1CCC2(CC1)OOC1(CCCCCCCCCCC1)OO2)NCCN1CCOCC1` [Tetraoxane 28f, N-(2-Morpholin-4-yl-ethyl)-2-(7,8,21,22-tetraoxa-dispiro[5.2.11.2]do-cos-3-yl)-acetamide] gave a melting point of 78 to 80 °C.

For the compound `CCN(CC)CCNC(=O)CC1CCC2(CC1)OOC1(CCCCCCCCCCC1)OO2` [Tetraoxane 28g, N-(2-Diethylamino-ethyl)-2-(7,8,21,22-tetraoxa-dispiro[5.2.11.2]-docos-3-yl)-acetamide], the melting point was 64 to 66 °C.

For the compound `O=C(CC1CCC2(CC1)OOC1(CCCCCCCCCCC1)OO2)N1CCOCC1` [Tetraoxane 28h, 1-Morpholin-4-yl-2-(7,8,21,22-tetraoxa-dispiro[5.2.11.2]docos-3-yl)-ethanone], the melting point was 118 to 120 °C. The IC50 in data set [1] (setting [4]) was 23.7 nM.

With `O=C(CC1CCC2(CC1)OOC1(CCCCCCCCCCC1)OO2)N1CCSCC1` [Tetraoxane 28i, 2-(7,8,21,22-Tetraoxa-dispiro[5.2.11.2]docos-3-yl)-1-thiomorpholin-4-yl-ethanone], the melting point lay in the range of 108 to 110 °C. In addition, in data set [1] (setting [4]), the IC50 is 26.9 nM.

The compound `O=C(CC1CCC2(CC1)OOC1(OO2)C2CC3CC(C2)CC1C3)NCCN1CCCC1` (stereo not shown) [Tetraoxane 29d] yielded a melting point of 142 to 144 °C.

In the case of `O=C(CC1CCC2(CC1)OOC1(OO2)C2CC3CC(C2)CC1C3)NCCN1CCCCC1` (stereo not shown) [Tetraoxane 29e, N-(2-Piperidin-1-yl-ethyl)-[adamantyl]acetamide], the melting point lay within 119 to 121 °C.

For the compound `O=C(CC1CCC2(CC1)OOC1(OO2)C2CC3CC(C2)CC1C3)N1CCSCC1` (stereo not shown) [Tetraoxane 29i, Tetraoxa-dispiro-(adamantly)-thiomorpholin-4-yl-ethanone], the melting point lay in the range of 150 to 152 °C. The IC50 in data set [1] (setting [4]) is 5.9 nM.

With `O=C(CC1CCC2(CC1)OOC1(OO2)C2CC3CC(C2)CC1C3)N1CCCCC1` (stereo not shown) [Tetraoxane 29m], the IC50 in data set [1] (setting [4]) is 0.5 nM.

For `CC(C)CN1CCN(C(=O)CC2CCC3(CC2)OOC2(OO3)C3CC4CC(C3)CC2C4)CC1` (stereo not shown) [Tetraoxane 29s], the IC50 in data set [1] (setting [4]) is 2.7 nM.

Turning to `O=C(CC1CCC2(CC1)OOC1(CCCCCCCCCCC1)OO2)N1CCS(=O)(=O)CC1` [Tetraoxane 31, 1-(1,1-Dioxo-1λ^6-thiomorpholin-4-yl)-2-(7,8,21,22-tetraoxa-dispiro[5.2.11.2]docos-3-yl)-ethanone], the melting point lay within 170 to 172 °C. For the same compound, the 50% inhibitory concentration (IC50) in data set [1] (setting [4]) came to 92.6 nM.

As for `O=C(CC1CCC2(CC1)OOC1(OO2)C2CC3CC(C2)CC1C3)N1CCS(=O)(=O)CC1` (stereo not shown) [Tetraoxane 32, 1-(1,1-Dioxo-1λ^6-thiommpholin-4-yl)-2-tetraoxa-dispiro-adamantyl ethanone], the melting point lay in the range of 189 to 191 °C. Moreover, the IC50 in data set [1] (setting [4]) was determined as 24.2 nM.

For `O=C1CCN(C(=O)N2CCOCC2)CC1` [Tetraoxane 34f, 1-(Morpholine-4-carbonyl)-piperidin-4-one], in data set [1] (3D7, read-out: Mean IC50), the IC50 was found to be 4.7 nM.

Consider `O=C(N1CCCCC1)N1CCC(OO)(OO)CC1` [Tetraoxane 34i, (4,4-dihydroperoxypiperidin-1-yl)(piperidin-1-yl)methanone], for which the IC50 in data set [1] (3D7, read-out: Mean IC50) amounted to 7.2 nM.

For `O=C(N1CCCCC1)N1CCC2(CC1)OOC1(CCCCC1)OO2` [Tetraoxane 34k], the half-maximal inhibitory concentration (IC50) in data set [1] (3D7, read-out: Mean IC50) stood at 7 nM.

Turning to `CS(=O)(=O)N1CCC2(CC1)OOC1(OO2)C2CC3CC(C2)CC1C3` [Tetraoxane 39a], the IC50 in data set [1] (setting [5]) stood at 10.2 nM.

With `CC(C)S(=O)(=O)N1CCC2(CC1)OOC1(OO2)C2CC3CC(C2)CC1C3` [Tetraoxane 39c], in data set [1] (setting [5]), the IC50 came out at 5.87 nM.

On to `O=S(=O)(CC(F)(F)F)N1CCC2(CC1)OOC1(OO2)C2CC3CC(C2)CC1C3` [Tetraoxane 39e], for which, in data set [1] (setting [5]), the half-maximal inhibitory concentration (IC50) was found to be 14.3 nM.

With `O=S(=O)(c1ccc(F)cc1)N1CCC2(CC1)OOC1(OO2)C2CC3CC(C2)CC1C3` [Tetraoxane 39g], the IC50 in data set [1] (setting [5]) was found to be 16.7 nM.

As to `O=S(=O)(c1ccc(Cl)cc1)N1CCC2(CC1)OOC1(OO2)C2CC3CC(C2)CC1C3` [Tetraoxane 39h], the IC50 in data set [1] (setting [5]) turned out to be 22.7 nM.

For `O=S(=O)(c1ccc(C(F)(F)F)cc1)N1CCC2(CC1)OOC1(OO2)C2CC3CC(C2)CC1C3` [Tetraoxane 39i], the half-inhibitory concentration (IC50) in data set [1] (setting [5]) turned out to be 20.7 nM.

Turning to `CS(=O)(=O)N1CCC2(CC1)OOC1(CCCCCCCCCCC1)OO2` [Tetraoxane 40a], the IC50 in data set [1] (setting [5]) was 27.8 nM.

In the case of `CCS(=O)(=O)N1CCC2(CC1)OOC1(CCCCCCCCCCC1)OO2` [Tetraoxane 40b], the IC50 in data set [1] (setting [5]) is 29.1 nM.

`CC(C)S(=O)(=O)N1CCC2(CC1)OOC1(CCCCCCCCCCC1)OO2` [Tetraoxane 40c]: the IC50 in data set [1] (setting [5]) came out at 86.4 nM.

As for `O=S(=O)(c1ccccc1)N1CCC2(CC1)OOC1(CCCCCCCCCCC1)OO2` [Tetraoxane 40d], the IC50 in data set [1] (setting [5]) amounted to 131 nM.

Consider `CCS(=O)(=O)N1C2CCC1CC1(C2)OOC2(OO1)C1CC3CC(C1)CC2C3` (stereo not shown) [Tetraoxane 41d, Tropinone derived 1,2,4,5-tetraoxane], for which the half-inhibitory concentration (IC50) in data set [1] (setting [5]) came to 60.6 nM.

As for `CC(C)(C)NCc1cc(Nc2ccnc3cc(Cl)ccc23)ccc1Cl` [Tetraoxane D535, 4′Chloro N-tertbutyl amodiaquin, reference compound], in data set [2], the “MCE NM2009 (Maximum Co w/o effects on bacteria growth or beta-galactosidase production)” value is 140 µM and the Potential genotox result was “NEG”. Further, in data set [3], the “MCE TA1535 (Maximum Co w/o effects on bacteria growth or β-galactosidase production)” value amounted to 140 µM. In addition, in data set [3] (−S9), the “Max. Fold Increase” value was found to be 1.10 ± 0.07 fold and the Potential genotox entry is reported as “NEG”.

Source of the values: US20100113436A1, “DISPIRO TETRAOXANE COMPOUNDS AND THEIR USE IN THE TREATMENT OF MALARIA AND/OR CANCER” (priority 2006, published 2010).
